According to patent publication US12077503B2, “Substituted cyclic amides and their use as herbicides” (FMC CORPORATION, priority 2015, dated 2024):
Like-named read-outs stand apart in the source and are kept apart here.

Legend:
Format in all cases: in vivo
[1] = tested on: barnyardgrass (Echinochloa crus-galli); assay: Test A preemergence; conditions: Echinochloa crus-galli, pre-emergence, 240 h; for pest or weed control at 125 g/ha: 125 g ai/ha; for pest or weed control at 500 g/ha: 500 g ai/ha
In short: (§1)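 Compounds were formulated in a non-phytotoxic solvent mixture with surfactant and applied as a preemergence directed soil spray after seeding, or sprayed postemergence over plants 2 to 10 cm tall at the one- to two-leaf stage. Evaluation after about 10 d compared treated with untreated controls, using a scale from 0 (no effect) to 100 (complete control).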

[2] = tested on: Galium (catchweed bedstraw, Galium aparine); assay: Test A postemergence; conditions: Galium, post-emergence, 240 h, postemergence; for pest or weed control at 125 g/ha: 125 g ai/ha
In short: as §1

Kochia (Kochia scoparia) = assay: Test A postemergence; conditions: Bassia scoparia, post-emergence, 240 h, postemergence; for pest or weed control at 125 g/ha: 125 g ai/ha
In short: as §1

[3] = tested on: barnyardgrass (Echinochloa crus-galli); assay: Test A postemergence; conditions: Echinochloa crus-galli, post-emergence, 240 h; for pest or weed control at 125 g/ha: 125 g ai/ha
In short: as §1

[4] = tested on: blackgrass (Alopecurus myosuroides); assay: Test A postemergence; conditions: Alopecurus myosuroides, post-emergence, 240 h; for pest or weed control at 125 g/ha: 125 g ai/ha
In short: as §1

corn (Zea mays) = assay: Test A postemergence; conditions: Zea mays, post-emergence, 240 h
In short: as §1

[5] = tested on: giant foxtail (Setaria faberii); assay: Test A postemergence; conditions: Setaria faberi, post-emergence, 240 h, postemergence; for pest or weed control at 125 g/ha: 125 g ai/ha
In short: as §1

[6] = tested on: pigweed (Amaranthus retroflexus); assay: Test A postemergence; conditions: Amaranthus retroflexus, post-emergence, 240 h, postemergence; for pest or weed control at 125 g/ha: 125 g ai/ha
In short: as §1

[7] = tested on: ragweed (common ragweed, Ambrosia elatior); assay: Test A postemergence; conditions: Ambrosia artemisiifolia, post-emergence, 240 h, postemergence; for pest or weed control at 125 g/ha: 125 g ai/ha
In short: as §1

[8] = tested on: ryegrass, Italian (Italian ryegrass, Lolium multiflorum); assay: Test A postemergence; conditions: Lolium multiflorum, post-emergence, 240 h, postemergence; for pest or weed control at 125 g/ha: 125 g ai/ha
In short: as §1

[9] = tested on: wheat (Triticum aestivum); assay: Test A postemergence; conditions: Triticum aestivum, post-emergence, 240 h, postemergence; for plant injury at 125 g/ha: 125 g ai/ha
In short: as §1

[10] = tested on: barnyardgrass (Echinochloa crus-galli); assay: Test B flooded paddy test; conditions: Echinochloa crus-galli, 250 g ai/ha, Flood, read-out: Barnyardgrass plant response rating
In short: (§2)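 Plants at 2-leaf stage flooded to 3 cm above soil, with compounds applied directly to paddy water and that depth maintained. Plants kept in greenhouse 13–15 d. Visual rating versus controls on a 0 (no effect) to 100 (complete control) scale.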

[11] = tested on: ducksalad (Heteranthera limosa); assay: Test B flooded paddy test; conditions: Heteranthera limosa, 250 g ai/ha, Flood, read-out: Ducksalad plant response rating
In short: as §2

rice (Oryra sativa) = assay: Test B flooded paddy test; conditions: Oryza sativa, 250 g ai/ha, Flood, read-out: Rice plant response rating
In short: as §2

[12] = tested on: sedge, umbrella (small-flower umbrella sedge, Cyperus difformis); assay: Test B flooded paddy test; conditions: Cyperus difformis, 250 g ai/ha, Flood, read-out: Sedge, Umbrella plant response rating
In short: as §2

[13] = 0 to 100 scale where 0 is no effect and 100 is complete control
[14] = scale of 0 to 100 where 0 is no effect and 100 is complete control

`CC(C)COc1cccc([C@H]2CN(C)C(=O)[C@@H]2C(=O)Nc2ccc(F)cc2F)c1` [Compound 1030] showed a pest or weed control at 125 g/ha ([1]; Preemergence, visual injury rating after approximately 10 d, read-out: Barnyardgrass plant response rating (0 to 100 scale, 0 is no effect, 100 is complete control)) of 70%, a pest or weed control at 500 g/ha ([1]; preemergence, visual injury rating about 10 d after treatment, 0 to 100 scale (0 no effect, 100 complete control), read-out: Barnyardgrass plant response rating) of 90% and a pest or weed control at 125 g/ha ([2]; visual injury on 0 to 100 scale (0 no effect, 100 complete control), approx. 10 d, read-out: Galium plant response rating) of 40%. It also gave a pest or weed control at 500 g/ha ([2]; 500 g ai/ha, visual injury, 0 to 100 scale (0 no effect, 100 complete control), approx. 10 d, read-out: Plant response rating, Galium) of 60%, a pest or weed control at 125 g/ha (Kochia (Kochia scoparia); visual injury on 0 to 100 scale (0 no effect, 100 complete control), approx. 10 d, read-out: Kochia plant response rating) of 0% and a pest or weed control at 500 g/ha (Kochia (Kochia scoparia); 500 g ai/ha, visual injury, 0 to 100 scale (0 no effect, 100 complete control), approx. 10 d, read-out: Plant response rating, Kochia) of 0%. The pest or weed control at 125 g/ha ([3]; Postemergence, visual injury after approximately 10 d, 0 to 100 scale where 0 is no effect and 100 is complete control, read-out: Plant response rating, Barnyardgrass) was 70%, the pest or weed control at 500 g/ha ([3]; 500 g ai/ha, postemergence, visual injury, 0 to 100 scale (0 no effect, 100 complete control), approx. 10 d, read-out: Plant response rating, Barnyardgrass) was 90% and the pest or weed control at 125 g/ha ([4]; Postemergence, visual injury after approximately 10 d, 0 to 100 scale where 0 is no effect and 100 is complete control, read-out: Plant response rating, Blackgrass) was 0%. For the same molecule, the pest or weed control at 500 g/ha ([4]; 500 g ai/ha, postemergence, visual injury, 0 to 100 scale (0 no effect, 100 complete control), approx. 10 d, read-out: Plant response rating, Blackgrass) was 60%, the Corn plant response rating (crop injury, 0 = no effect, 100 = complete kill) at 125 g/ha (corn (Zea mays); 125 g ai/ha, Postemergence, visual injury after approximately 10 d, 0 to 100 scale where 0 is no effect and 100 is complete control) was 20% and the Corn plant response rating (crop injury, 0 = no effect, 100 = complete kill) at 500 g/ha (corn (Zea mays); 500 g ai/ha, postemergence, visual injury, 0 to 100 scale (0 no effect, 100 complete control), approx. 10 d) was 50%. It also gave a pest or weed control at 125 g/ha ([5]; visual injury on 0 to 100 scale (0 no effect, 100 complete control), approx. 10 d, read-out: Foxtail, Giant plant response rating) of 70%, a pest or weed control at 500 g/ha ([5]; 500 g ai/ha, visual injury, 0 to 100 scale (0 no effect, 100 complete control), approx. 10 d, read-out: Plant response rating, Foxtail, Giant) of 90% and a pest or weed control at 125 g/ha ([6]; visual injury on 0 to 100 scale (0 no effect, 100 complete control), approx. 10 d, read-out: Pigweed plant response rating) of 0%. It also gave a pest or weed control at 500 g/ha ([6]; 500 g ai/ha, visual injury, 0 to 100 scale (0 no effect, 100 complete control), approx. 10 d, read-out: Plant response rating, Pigweed) of 0%, a pest or weed control at 125 g/ha ([7]; visual injury on 0 to 100 scale (0 no effect, 100 complete control), approx. 10 d, read-out: Ragweed plant response rating) of 0% and a pest or weed control at 500 g/ha ([7]; 500 g ai/ha, visual injury, 0 to 100 scale (0 no effect, 100 complete control), approx. 10 d, read-out: Plant response rating, Ragweed) of 0%. For the same molecule, the pest or weed control at 125 g/ha ([8]; visual injury on 0 to 100 scale (0 no effect, 100 complete control), approx. 10 d, read-out: Ryegrass, Italian plant response rating) was 0%, the pest or weed control at 500 g/ha ([8]; 500 g ai/ha, visual injury, 0 to 100 scale (0 no effect, 100 complete control), approx. 10 d, read-out: Plant response rating, Ryegrass, Italian) was 0% and the plant injury at 125 g/ha ([9]; visual injury on 0 to 100 scale (0 no effect, 100 complete control), approx. 10 d, read-out: Wheat plant response rating) was 30%. It also gave a plant injury at 500 g/ha ([9]; 500 g ai/ha, visual injury, 0 to 100 scale (0 no effect, 100 complete control), approx. 10 d, read-out: Plant response rating, Wheat) of 60%, a pest or weed control at 250 g/ha [10, 13] of 30% and a pest or weed control at 250 g/ha [11, 13] of 70%. It also gave a pest or weed control at 250 g/ha (rice (Oryra sativa); [13]) of 0% and a pest or weed control at 250 g/ha [12, 13] of 0%.
In the case of `COc1ccc([C@H]2CN(C)C(=O)[C@@H]2C(=O)Nc2cccc(F)c2F)cc1OC` [Compound 853], the pest or weed control at 125 g/ha ([1]; preemergence, 0 to 100 scale where 0 is no effect and 100 is complete control, read-out: Barnyardgrass plant response rating) is reported as 90%, the pest or weed control at 500 g/ha ([1]; Preemergence, visual injury vs untreated controls after approximately 10 d, read-out: Barnyardgrass plant response rating (0 to 100 scale where 0 is no effect and 100 is complete control)) is reported as 100% and the pest or weed control at 125 g/ha ([2]; visual injury rating after approximately 10 d, read-out: Galium plant response rating (0 to 100 scale, 0 no effect, 100 complete control)) is reported as 0%. It also gave a pest or weed control at 125 g/ha (Kochia (Kochia scoparia); visual injury rating after approximately 10 d, read-out: Kochia plant response rating (0 to 100 scale, 0 no effect, 100 complete control)) of 0%, a pest or weed control at 125 g/ha ([3]; postemergence, visual injury rating after approximately 10 d, read-out: Barnyardgrass plant response rating (0 to 100 scale, 0 no effect, 100 complete control)) of 90% and a pest or weed control at 125 g/ha ([4]; postemergence, visual injury rating after approximately 10 d, read-out: Blackgrass plant response rating (0 to 100 scale, 0 no effect, 100 complete control)) of 20%. The plant injury at 125 g/ha (corn (Zea mays); 125 g ai/ha, postemergence, visual injury rating after approximately 10 d, read-out: Corn plant response rating (0 to 100 scale, 0 no effect, 100 complete control)) was 0%, the pest or weed control at 125 g/ha ([5]; visual injury rating after approximately 10 d, read-out: Foxtail, Giant plant response rating (0 to 100 scale, 0 no effect, 100 complete control)) was 90% and the pest or weed control at 125 g/ha ([6]; visual injury rating after approximately 10 d, read-out: Pigweed plant response rating (0 to 100 scale, 0 no effect, 100 complete control)) was 0%. The pest or weed control at 125 g/ha ([7]; visual injury rating after approximately 10 d, read-out: Ragweed plant response rating (0 to 100 scale, 0 no effect, 100 complete control)) was 0%, the pest or weed control at 125 g/ha ([8]; visual injury rating after approximately 10 d, read-out: Ryegrass, Italian plant response rating (0 to 100 scale, 0 no effect, 100 complete control)) was 0% and the plant injury at 125 g/ha ([9]; visual injury rating after approximately 10 d, read-out: Wheat plant response rating (0 to 100 scale, 0 no effect, 100 complete control)) was 0%. The pest or weed control at 250 g/ha [10, 14] was 70%, the pest or weed control at 250 g/ha [11, 14] was 40% and the pest or weed control at 250 g/ha (rice (Oryra sativa); [14]) was 20%. For the same molecule, the pest or weed control at 250 g/ha [12, 14] was 0%.
